This is an account of results in US11939320B2, “Modulators of the integrated stress pathway” (Calico Life Sciences LLC, priority 2017, dated 2024).

The test system of this test is HEK293T cells carrying the ATF4 luciferase reporter. Kind of test: ATF4-Luc assay (in vitro model of VWMD). The format is cell-based. To be noted: Homo sapiens, HEK-293T; HEK293T cells with ATF4 5'-UTR firefly luciferase reporter; 1 μg/mL tunicamycin; 7 hours; One Glo luminescence. Here is the method: In order to test exemplary compounds of the invention in a cellular context, a stable VWMD cell line was first constructed. The ATF4 reporter was prepared by fusing the human full-length ATF4 5′-UTR (NCBI Accession No. BC022088.2) in front of the firefly luciferase (FLuc) coding sequence lacking the initiator methionine as described in Sidrauski et al (eLife 2013). The construct was used to produce recombinant retroviruses using standard methods and the resulting viral supernatant was used to transduce HEK293T cells, which were then subsequently selected with puromycin to generate a stable cell line.
HEK293T cells carrying the ATF4 luciferase reporter were plated on polylysine coated 384-well plates (Greiner Bio-one) at 30,000 cells per well. Cells were treated the next day with 1 μg/mL tunicamycin and 200 nM of a compound of Formula (I) for 7 hours. Luminescence was measured using One Glo (Promega) as specified by the manufacturer. Cells were maintained in DMEM with L-glutamine supplemented with 10% heat-inactivated FBS (Gibco) and Antibiotic-Antimycotic solution (Gibco).
Table 2 below summarizes the EC50 data obtained using the ATF4-Luc assay for exemplary compounds of the invention.

The term EC50 denotes the midpoint of the concentration-response curve. As to `O=C(COc1ccc(F)c(F)c1)N[C@H]1CC[C@H](C(=O)NCc2nc3cc(F)c(F)cc3[nH]2)CC1` [Compound 154, (1r,4r)-N-[(5,6-difluoro-1H-benzimidazol-2-yl)methyl]-4-[2-(3,4-difluorophenoxy)acetamido]cyclohexane-1-carboxamide], the concentration for a half-maximal effect (EC50) is > 2000 nM.

As for `O=C(COc1ccc(Cl)cc1)N[C@H]1CC[C@H](C(=O)NCc2nc3cc(F)c(F)cc3[nH]2)CC1` [Compound 155, (1r,4r)-4-[2-(4-chlorophenoxy)acetamido]-N-[(5,6-difluoro-1H-benzimidazol-2-yl)methyl]cyclohexane-1-carboxamide], the half-maximal effective concentration (EC50) was in the range of 500 to 2000 nM.

With `O=C(COc1ccc(Cl)c(F)c1)N[C@@H]1CC[C@@H](C(=O)NCc2nc3cc(F)c(F)cc3[nH]2)OC1` [Compound 156, (2S,5R)-5-[2-(4-chloro-3-fluorophenoxy)acetamido]-N-[(5,6-difluoro-1H-benzimidazol-2-yl)methyl]oxane-2-carboxamide], the EC50 was 50 to 250 nM.

On to `O=C(COc1ccc(Cl)c(F)c1)N[C@@H]1CC[C@@H](C(=O)NCc2ccc(OC(F)(F)F)cc2)OC1` [Compound 157, (2S,5R)-5-[2-(4-chloro-3-fluorophenoxy)acetamido]-N-{[4-(trifluoromethoxy)phenyl]methyl}oxane-2-carboxamide], for which the EC50 was in the range of 50 to 250 nM.

On to `O=C(COc1ccc(Cl)c(F)c1)N[C@@H]1CC[C@@H](C(=O)NCc2ccc(C(F)(F)F)cc2)OC1` [Compound 158, (2S,5R)-5-[2-(4-chloro-3-fluorophenoxy)acetamido]-N-{[4-(trifluoromethyl)phenyl]methyl}oxane-2-carboxamide], for which the EC50 is 50 to 250 nM.

Consider `O=C(COc1ccc(Cl)c(F)c1)N[C@H]1CC[C@H](C(=O)NCc2ccc(C(F)(F)F)cn2)OC1` [Compound 159, (2R,5S)-5-[2-(4-chloro-3-fluorophenoxy)acetamido]-N-{[5-(trifluoromethyl)pyridin-2-yl]methyl}oxane-2-carboxamide], for which the 50% effective concentration (EC50) was 10 to 50 nM.

Take `O=C(COc1ccc(Cl)c(F)c1)N[C@@H]1CC[C@@H](C(=O)N2CC(c3ccc(Cl)cc3)C2)OC1` [Compound 160, 2-(4-chloro-3-fluorophenoxy)-N-{(3R,6S)-6-[3-(4-chlorophenyl)azetidine-1-carbonyl]oxan-3-yl}acetamide]: the EC50 is 10 to 50 nM.

`O=C(COc1ccc(Cl)c(F)c1)NC1CCC(C(=O)NCc2ccc(C(F)(F)F)cn2)OC1` (stereo not shown) [Compound 166, 5-[2-(4-chloro-3-fluorophenoxy)acetamido]-N-{[5-(trifluoromethyl)pyridin-2-yl]methyl}oxane-2-carboxamide]: the concentration giving a half-maximal response (EC50) is > 2000 nM.

`O=C(COc1ccc(Cl)c(F)c1)N[C@@H]1CC[C@@H](C(=O)NCc2ccc3c(c2)OC(F)(F)O3)OC1` [Compound 167, (2S,5R)-5-[2-(4-chloro-3-fluorophenoxy)acetamido]-N-[(2,2-difluoro-2H-1,3-benzodioxol-5-yl)methyl]oxane-2-carboxamide]: the EC50 lay in the range of 50 to 250 nM.

As to `O=C(COc1ccc(Cl)c(F)c1)N[C@H]1C[C@H](C(=O)Nc2ccc(OC(F)F)nc2)C1` [Compound 168, (1r,3r)-3-[2-(4-chloro-3-fluorophenoxy)acetamido]-N-[6-(difluoromethoxy)pyridin-3-yl]cyclobutane-1-carboxamide], the EC50 is > 2000 nM.

Regarding `O=C(COc1ccc(Cl)c(F)c1)N[C@H]1C[C@H](C(=O)NCc2ccc(Cl)cc2)C1` [Compound 169, (1r,3r)-3-[2-(4-chloro-3-fluorophenoxy)acetamido]-N-[(4-chlorophenyl)methyl]cyclobutane-1-carboxamide], the EC50 was > 2000 nM.

In the case of `O=C(COc1ccc(Cl)c(F)c1)N[C@H]1CC[C@H](C(=O)NCc2cc(OC3CCC3)ccn2)CC1` [Compound 170, (1r,4r)-4-[2-(4-chloro-3-fluorophenoxy)acetamido]-N-{[4-(cyclobutyloxy)pyridin-2-yl]methyl}cyclohexane-1-carboxamide], the EC50 was > 2000 nM.

For `O=C(COc1ccc(Cl)c(F)c1)N[C@H]1CC[C@H](C(=O)NCc2cc(C(F)(F)F)ccn2)CC1` [Compound 171, (1r,4r)-4-[2-(4-chloro-3-fluorophenoxy)acetamido]-N-{[4-(trifluoromethyl)pyridin-2-yl]methyl}cyclohexane-1-carboxamide], the EC50 fell in the range of 50 to 250 nM.

Consider `NC(=O)c1ccc(CNC(=O)[C@H]2CC[C@H](NC(=O)COc3ccc(Cl)c(F)c3)CC2)nc1` [Compound 172, 6-[({(1r,4r)-4-[2-(4-chloro-3-fluorophenoxy)acetamido]cyclohexane-1-carbonyl}amino)methyl]pyridine-3-carboxamide], for which the EC50 was > 2000 nM.

Consider `N#Cc1ccc(CNC(=O)[C@H]2CC[C@H](NC(=O)COc3ccc(Cl)c(Cl)c3)CC2)nc1` [Compound 173, (1r,4r)-N-[(5-cyanopyridin-2-yl)methyl]-4-[2-(3,4-dichlorophenoxy)acetamido]cyclohexane-1-carboxamide], for which the EC50 lay in the range of 50 to 250 nM.

For `O=C(COc1ccc(Cl)c(Cl)c1)N[C@@H]1CC[C@@H](C(=O)NCc2ccc(C(F)(F)F)cn2)OC1` [Compound 174, (2S,5R)-5-[2-(3,4-dichlorophenoxy)acetamido]-N-{[5-(trifluoromethyl)pyridin-2-yl]methyl}oxane-2-carboxamide], the EC50 was in the range of 10 to 50 nM.

`O=C(COc1ccc(Cl)c(Cl)c1)N[C@H]1CC[C@H](C(=O)NCc2ccc(Cl)cn2)CC1` [Compound 175, (1r,4r)-N-[(5-chloropyridin-2-yl)methyl]-4-[2-(3,4-dichlorophenoxy)acetamido]cyclohexane-1-carboxamide]: the EC50 lay in the range of 50 to 250 nM.

Regarding `O=C(COc1ccc(Cl)c(F)c1)N[C@H]1CC[C@H](C(=O)NCc2ccc(Cl)cn2)CC1` [Compound 176, (1r,4r)-4-[2-(4-chloro-3-fluorophenoxy)acetamido]-N-[(5-chloropyridin-2-yl)methyl]cyclohexane-1-carboxamide], the EC50 is > 2000 nM.

`O=C(COc1ccc(Cl)c(F)c1)N[C@H]1CC[C@H](C(=O)Nc2ccc(OC(F)(F)F)nc2)CC1` [Compound 177, (1r,4r)-4-[2-(4-chloro-3-fluorophenoxy)acetamido]-N-[6-(trifluoromethoxy)pyridin-3-yl]cyclohexane-1-carboxamide]: the concentration giving a half-maximal response (EC50) is < 10 nM.

Take `O=C(COc1ccc(Cl)c(F)c1)N[C@H]1CC[C@H](C(=O)NCCOc2ccc(Cl)c(F)c2)CC1` [Compound 178, (1r,4r)-4-[2-(4-chloro-3-fluorophenoxy)acetamido]-N-[2-(4-chloro-3-fluorophenoxy)ethyl]cyclohexane-1-carboxamide]: the EC50 is 10 to 50 nM.

Regarding `O=C(COc1ccc(Cl)c(F)c1)N[C@H]1CC[C@H](C(=O)NCc2ccc3c(c2)OC(F)(F)O3)CC1` [Compound 179, (1r,4r)-4-[2-(4-chloro-3-fluorophenoxy)acetamido]-N-[(2,2-difluoro-2H-1,3-benzodioxol-5-yl)methyl]cyclohexane-1-carboxamide], the EC50 lay within 10 to 50 nM.

Take `O=C(COc1ccc(Cl)c(Cl)c1)N[C@H]1CC[C@H](C(=O)N(CCO)Cc2ccc(Cl)c(F)c2)CC1` [Compound 180, (1r,4r)-N-[(4-chloro-3-fluorophenyl)methyl]-4-[2-(3,4-dichlorophenoxy)acetamido]-N-(2-hydroxyethyl)cyclohexane-1-carboxamide]: the EC50 is 500 to 2000 nM.

For the compound `O=C(COc1ccc(Cl)c(F)c1)N[C@H]1CC[C@H](C(=O)N(CCO)Cc2ccc(Cl)c(F)c2)CC1` [Compound 181, (1r,4r)-4-[2-(4-chloro-3-fluorophenoxy)acetamido]-N-[(4-chloro-3-fluorophenyl)methyl]-N-(2-hydroxyethyl)cyclohexane-1-carboxamide], the 50% effective concentration (EC50) fell in the range of 500 to 2000 nM.

Regarding `O=C(COc1ccc(Cl)c(Cl)c1)N[C@H]1CC[C@H](C(=O)NCc2cc(CO)ccn2)CC1` [Compound 182, (1r,4r)-4-[2-(3,4-dichlorophenoxy)acetamido]-N-{[4-(hydroxymethyl)pyridin-2-yl]methyl}cyclohexane-1-carboxamide], the EC50 was > 2000 nM.

With `O=C(COc1ccc(Cl)c(Cl)c1)N[C@H]1CC[C@H](C(=O)NCc2ccc(C(F)(F)F)cn2)CC1` [Compound 183, (1r,4r)-4-[2-(3,4-dichlorophenoxy)acetamido]-N-{[5-(trifluoromethyl)pyridin-2-yl]methyl}cyclohexane-1-carboxamide], the EC50 was < 10 nM.

Turning to `O=C(COc1ccc(Cl)c(Cl)c1)N[C@H]1CC[C@H](C(=O)NCc2ccc(C(F)F)cn2)CC1` [Compound 184, (1r,4r)-4-[2-(3,4-dichlorophenoxy)acetamido]-N-{[5-(difluoromethyl)pyridin-2-yl]methyl}cyclohexane-1-carboxamide], the concentration giving a half-maximal response (EC50) fell in the range of 10 to 50 nM.

For `O=C(COc1ccc(Cl)c(F)c1)N[C@@H]1CC[C@@H](C(=O)NCc2ccc(Cl)c(F)c2)OC1` [Compound 185, (2S,5R)-5-[2-(4-chloro-3-fluorophenoxy)acetamido]-N-[(4-chloro-3-fluorophenyl)methyl]oxane-2-carboxamide], the EC50 lay within 10 to 50 nM.

For `O=C(COc1ccc(Cl)c(F)c1)N[C@@H]1CC[C@@H](C(=O)NCc2ccc(C(F)(F)F)cn2)OC1` [Compound 186, (2S,5R)-5-[2-(4-chloro-3-fluorophenoxy)acetamido]-N-{[5-(trifluoromethyl)pyridin-2-yl]methyl}oxane-2-carboxamide], the concentration for a half-maximal effect (EC50) is 10 to 50 nM.
